Source: ChEMBL document CHEMBL5131415, “Cadiolide analogues and their precursors as new inhibitors of bacterial quorum sensing and biofilm formation” (2022)
Activity calls are given as the source filed them. The calls are words filed in the database; no cut-off is given here.

What was measured:
Escherichia coli [1] = experiment: Inhibition of biofilm formation in Escherichia coli RP347 at 50 ug/ml by crystal violet staining based microtiter plate method; type: functional, organism-based; settings: dose 50.0 µg/ml
Escherichia coli [2] = experiment: Inhibition of biofilm formation in Escherichia coli RP347 at 50 ug/ml by crystal violet staining based microtiter plate method relative to control; type: functional; settings: for inhibition at 50 µg/mL: Escherichia coli, RP347, dose 50 µg/ml
[3] = Inhibition of Escherichia coli RP347 planktonic cell growth at 50 ug/ml by microplate reader analysis relative to control; type: functional; settings: RP347, dose 50 µg/ml
Pseudomonas aeruginosa [4] = experiment: Induction of biofilm formation in Pseudomonas aeruginosa PAO1 at 50 ug/ml by crystal violet staining based microtiter plate method relative to control; type: functional; settings: dose 50.0 µg/ml
Vibrio harveyi [5] = experiment: Inhibition of AHL-mediated quorum sensing system in Vibrio harveyi BB886 assessed as reduction in luminescence at 10 ug/ml by bioluminescence method relative to control; settings: dose 10.0 µg/ml
Vibrio harveyi [6] = experiment: Inhibition of AI-2-mediated quorum sensing system in Vibrio harveyi BB170 assessed as reduction in AI-2 production at 10 ug/ml by bioluminescence method relative to control; settings: dose 10.0 µg/ml
Pseudomonas aeruginosa [7] = experiment: Inhibition of biofilm formation in Pseudomonas aeruginosa PAO1 at 50 ug/ml by crystal violet staining based microtiter plate method relative to control; type: functional

SMILES: COc1cccc(C2=C(C(=O)c3ccc(Br)cc3)C(=O)O/C2=C\c2ccc(OC)c(Br)c2)c1
- inhibition (Escherichia coli [1]): Active

SMILES: O=C1O/C(=C\c2ccc(O)c(Br)c2)C(c2ccc(O)c(Br)c2)=C1C(=O)c1ccc(Br)cc1
- inhibition at 50 µg/mL (Escherichia coli [2]): 100%

SMILES: COc1ccc(C2=C(C(=O)c3ccc(Br)cc3)C(=O)O/C2=C\c2ccc(Br)cc2)cc1Br
- inhibition (Escherichia coli [1]): Active

SMILES: COc1ccc(/C=C2\OC(=O)C(C(=O)c3cccc(Br)c3)=C2c2ccc(OC)c(Br)c2)cc1Br
- inhibition (Escherichia coli [1]): Active

SMILES: COc1cccc(C2=C(C(=O)c3ccc(Br)cc3)C(=O)O/C2=C\c2ccc(Br)cc2)c1
- inhibition (Escherichia coli [1]): Active

SMILES: O=C1O/C(=C\c2ccc(Br)cc2)C(c2ccc(O)c(Br)c2)=C1C(=O)c1ccc(Br)cc1
- inhibition at 50 µg/mL (Escherichia coli [2]): 100%
- inhibition (INH) (Escherichia coli [2]; dose 50 µg/ml): 90%

SMILES: O=C1O/C(=C\c2ccc(O)cc2)C(c2ccc(O)c(Br)c2)=C1C(=O)c1ccc(Br)cc1
- inhibition at 50 µg/mL [3]: 61.9%
- inhibition at 50 µg/mL (Escherichia coli [2]): 100%

SMILES: O=C1O/C(=C\c2ccc(O)c(Br)c2)C(c2ccc(O)c(Br)c2)=C1C(=O)c1cccc(Br)c1
- inhibition (Escherichia coli [1]): Active

SMILES: COc1ccc(C2=C(C(=O)c3ccc(Br)cc3)C(=O)O/C2=C\c2ccc(C(F)(F)F)cc2)cc1Br
- Activity (Pseudomonas aeruginosa [4]): > 75%

SMILES: COc1ccc(/C=C2\OC(=O)C(C(=O)c3ccc(Br)cc3)=C2c2ccc(OC)c(Br)c2)cc1Br
- inhibition (Vibrio harveyi [5]): 76.1%
- inhibition (Escherichia coli [1]): Active
- Activity (Pseudomonas aeruginosa [4]): > 75%

SMILES: COc1ccc(C2=C(C(=O)c3cccc(Br)c3)C(=O)O/C2=C\c2ccc(Cl)cc2)cc1Br
- inhibition at 50 µg/mL (Escherichia coli [2]): 100%
- Activity (Pseudomonas aeruginosa [4]): > 75%

SMILES: COc1ccc(C2=C(C(=O)c3ccc(Br)cc3)C(=O)OC2)cc1Br
- inhibition (Vibrio harveyi [5]): 72.6%
- inhibition (Vibrio harveyi [6]): > 80%
- inhibition at 50 µg/mL (Escherichia coli [2]): 100%
- inhibition at 50 µg/mL (Pseudomonas aeruginosa [7]): 15.3%

SMILES: COc1cc(C#CC(=O)c2ccc(Br)cc2)ccc1Br
- inhibition (Vibrio harveyi [5]): 80%
- inhibition at 50 µg/mL (Escherichia coli [2]): 75.1%
- inhibition at 50 µg/mL (Pseudomonas aeruginosa [7]): 29%

SMILES: COc1cc(C#CC(=O)c2cccc(Br)c2)ccc1Br
- inhibition (Vibrio harveyi [6]): 100%
- inhibition (Escherichia coli [1]): Active

SMILES: COc1ccc(C(=O)C2=C(c3ccc(OC)c(Br)c3)COC2=O)cc1
- inhibition at 50 µg/mL [3]: 87.4%
- inhibition (Escherichia coli [1]): Active

SMILES: COc1ccc(C#CC(=O)c2ccc(Br)cc2)cc1
- inhibition (Vibrio harveyi [6]): 100%
- inhibition at 50 µg/mL [3]: 82.6%
- inhibition (Escherichia coli [1]): Active
- inhibition at 50 µg/mL (Pseudomonas aeruginosa [7]): 29%

SMILES: O=C1O/C(=C\c2ccc(O)c(Br)c2)C(c2ccc(O)c(Br)c2)=C1C(=O)c1ccc(O)cc1
- inhibition (Vibrio harveyi [5]): 88.7%
- inhibition (Vibrio harveyi [6]): 99.6%
- inhibition at 50 µg/mL [3]: 33.4%
- inhibition at 50 µg/mL (Pseudomonas aeruginosa [7]): 10%

SMILES: COc1ccc(C(=O)C#Cc2ccc(Br)c(OC)c2)cc1
- inhibition (Vibrio harveyi [6]): 100%
- inhibition (Escherichia coli [1]): Active
- Activity (Pseudomonas aeruginosa [4]): > 80%

SMILES: COc1ccc(C2=C(C(=O)c3cccc(Br)c3)C(=O)OC2)cc1Br
- inhibition (Vibrio harveyi [6]): > 80%
- inhibition (Escherichia coli [1]): Active
- inhibition at 50 µg/mL (Escherichia coli [2]): 81.2%
- Activity (Pseudomonas aeruginosa [4]): > 80%

SMILES: COc1ccc(C(=O)C2=C(c3ccc(OC)c(Br)c3)/C(=C/c3ccc(Cl)cc3)OC2=O)cc1
- inhibition (Escherichia coli [1]): Active
- inhibition at 50 µg/mL (Pseudomonas aeruginosa [7]): 10%

SMILES: COc1ccc(/C=C2\OC(=O)C(C(=O)c3ccc(Br)cc3)=C2c2ccc(OC)c(Br)c2)cc1
- inhibition (Vibrio harveyi [5]): 78.1%
- inhibition at 50 µg/mL (Escherichia coli [2]): 100%

SMILES: COc1cccc(C2=C(C(=O)c3ccc(Br)cc3)C(=O)OC2)c1
- inhibition at 50 µg/mL [3]: 76.5%
- inhibition (Escherichia coli [1]): Active
- inhibition at 50 µg/mL (Pseudomonas aeruginosa [7]): 22.7%

SMILES: COc1cc(OC)c(/C=C2\OC(=O)C(C(=O)c3ccc(Br)cc3)=C2c2ccc(OC)c(Br)c2)c(OC)c1
- inhibition at 50 µg/mL (Escherichia coli [2]): 100%

SMILES: COc1ccc(/C=C2\OC(=O)C(C(=O)c3ccc(Br)cc3)=C2c2cccc(OC)c2)cc1
- inhibition (Vibrio harveyi [6]): 76.1%
- inhibition (Escherichia coli [1]): Active
- Activity (Pseudomonas aeruginosa [4]): > 75%

SMILES: COc1ccc(C(=O)C2=C(c3ccc(OC)c(Br)c3)/C(=C/c3ccc(OC)c(Br)c3)OC2=O)cc1
- inhibition (Vibrio harveyi [6]): 74.9%
- inhibition (Escherichia coli [1]): Active
